Test results: patent US20210236476A1, “METHODS OF TREATING CANCER WITH SMALL MOLECULE PD-L1 INHIBITORS” (CHEMOCENTRYX, INC., priority 2018, published 2021)

biological target: T1, human PD-L1 / human PD-1 interaction (Homo sapiens, UniProt Q9NZQ7); experiment: ELISA of PD-1/PD-L1 interaction; format: binding
T1 construct: purchased R&D (PD-L1); ACRO Biosystems (PD-1, biotin)
Description: The activity of Compound 1.041 was assessed with an ELISA assay assessing the direct binding of recombinant PD-1 and PD-L1 proteins (FIG. 1A), a dimerization ELISA assay assessing the direct binding/dimerization of recombinant PD-L1 proteins (FIG. 1B), a cell based assay measuring the downstream signaling following the interaction of PD-1 and PD-L1 using a Luciferase reporter assay with cell lines overexpressing PD-1 and PD-L1 (FIG. 1C), and a mixed lymphocyte reaction assay measuring the functional outcome of upregulation of IFNg secretion, using allogenic primary human immune cells (FIG. 1D). Briefly, the mixed lymophocyte reaction assay was performed as follows: Dendritic cells and CD4+T Cells from unmatched donors were cultured together for 5 days in 96 well-flat bottom plates. Test compound was added as indicated at starting concentration of 1 μM with 1:4 dilutions with DMSO. Supernatants were harvested after 5 days of incubation and detection of human IFNg was performed by ELISA. […]
96 Well plates were coated with 1 μg/mL of human PD-L1 (obtained from R&D) in
PBS overnight at 4° C. The wells were then blocked with 2% BSA in PBS (WN) with 0.05% TWEEN-20 for 1 hour at 37° C. The plates were washed 3 times with PBS/0.05% TWEEN-20 and the compounds were serial diluted (1:5) in dilution medium and added to the ELISA plates. Human PD-1 and biotin 0.3μg/mL (ACRO Biosystems) were added and incubated for 1 hour at 37° C. then washed 3 times with PBS/0.05% TWEEN-20. A second block was performed with 2% BSA in PBS (WN)/0.05% TWEEN-20 for 10 min at 37° C. and was washed 3 times with PBS/0.05% TWEEN-20. Streptavidin—HRP was added for 1 hour at 37° C. then washed 3 times with PBS/0.05% TWEEN-20. TMB substrate was added and reacted for 20 min at 37° C. A stop solution (2 N aqueous H2SO4) was added. The absorbance was read at 450 nm using a micro-plate spectrophotometer.

T1 sequence (Q9NZQ7 19-239 limits assumed): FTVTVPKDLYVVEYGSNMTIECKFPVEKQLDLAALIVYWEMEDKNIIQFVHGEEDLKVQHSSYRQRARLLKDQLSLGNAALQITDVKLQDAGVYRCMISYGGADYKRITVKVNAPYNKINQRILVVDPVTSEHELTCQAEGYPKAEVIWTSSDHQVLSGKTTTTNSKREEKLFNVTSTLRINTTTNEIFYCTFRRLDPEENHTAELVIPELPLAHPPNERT

Row | Compound | IC50 [nM]
1 | C[C@@](CO)(NCc1cc(Cl)c(O[C@@H]2c3cccc(-c4cccc(OCCCN5CC(O)C5)c4Cl)c3C[C@@H]2F)cc1OCc1cncc(C#N)c1)C(=O)O | < 5
2 | Cc1c(OCCCN2CC3(CC(O)C3)C2)cccc1-c1cccc2c1CC[C@@H]2Oc1cc(OCc2cncc(C#N)c2)c(CN[C@H](C(=O)O)[C@@H](C)O)cc1Cl | < 5
3 | CC(CO)(NCc1cc(Cl)c(O[C@H]2CCc3c(-c4cccc(OCCCN5CC(O)C5)c4Cl)cccc32)cc1OCc1cccnc1)C(=O)O (stereo partly drawn) | < 5
4 | Cc1c(OCCCN2CCC(F)CC2)cccc1-c1cccc2c1CC[C@@H]2Oc1cc(OCc2cc(C#N)cc(C#N)c2)c(CN[C@@H]2CCC[C@@H]2O)cc1Cl | < 5
5 | C[C@@](CO)(NCc1cc(Cl)c(O[C@H]2CCc3c(-c4cccc(OCCCN5CCC5)c4Cl)cccc32)cc1OCc1cncc(C#N)c1)C(=O)O | < 5
6 | N#Cc1cncc(COc2cc(O[C@H]3CCc4c(-c5cccc(OCCCN6CC7(CC(O)C7)C6)c5Cl)cccc43)c(Cl)cc2CNC[C@H]2CCC(=O)N2)c1 | < 5
7 | N#Cc1cncc(COc2cc(O[C@H]3CCc4c(-c5cccc(OCCCN6CC7(CC(O)C7)C6)c5Cl)cccc43)c(Cl)cc2CN[C@@H]2CCC[C@H]2O)c1 | < 5
8 | Cc1c(OCCCN2[C@H](C)CC[C@@H]2C)cccc1-c1cccc2c1CC[C@@H]2Oc1cc(OCc2cc(C#N)cc(C#N)c2)c(CN[C@H]2CCC(=O)NC2)cc1Cl | < 5
9 | Cc1c(OCCCN2CCC(O)CC2)cccc1-c1cccc2c1C[C@H](F)[C@@H]2Oc1cc(OCc2cncc(C#N)c2)c(CN[C@@H]2CCCC[C@@H]2O)cc1Cl | < 5
10 | Cc1c(OCCCN2CCC(C)(F)CC2)cccc1-c1cccc2c1CC[C@@H]2Oc1cc(OCc2cncc(C#N)c2)c(CNC[C@@H]2CCC(=O)N2)cc1Cl | < 5
11 | N#Cc1cncc(COc2cc(O[C@H]3CCc4c(-c5cccc(OCCCN6CCC(F)CC6)c5Cl)cccc43)c(Cl)cc2CN[C@H]2CCOC[C@@H]2O)c1 [drawing 198] | < 5
12 | CC(C)OC(=O)[C@](C)(CO)NCc1cc(Cl)c(O[C@H]2CCc3c(-c4cccc(OCCCN5CC(O)C5)c4Cl)cccc32)cc1OCc1cncc(C#N)c1 | < 5
13 | N#Cc1cncc(COc2cc(O[C@H]3CCc4c(-c5cccc(OCCCN6CCCCC6)c5Cl)cccc43)c(Cl)cc2CNC[C@@H]2CCC(=O)N2)c1 | < 5
14 | CN1CCC(COc2cccc(-c3cccc4c3CC[C@@H]4Oc3cc(OCc4cncc(C#N)c4)c(CNC[C@@H]4CCC(=O)N4)cc3Cl)c2Cl)C1 (stereo partly drawn) | < 5
15 | Cc1c(OCCCN[C@@H]2CCCC[C@@H]2O)cccc1-c1cccc2c1CC[C@@H]2Oc1cc(OCc2cncc(C#N)c2)c(CN[C@H](C(=O)O)[C@@H](C)O)cc1Cl | < 5
16 | CC(=O)OC1CCN(CCCOc2cccc(-c3cccc4c3CC[C@@H]4Oc3cc(OCc4cncc(C#N)c4)c(CN[C@@H]4CCCC[C@@H]4O)cc3Cl)c2Cl)CC1 | < 5
17 | CCOc1cc(O[C@H]2CCc3c(-c4cccc(OCCCN5CC(O)C5)c4C)cccc32)c(Cl)cc1CN[C@@H](CO)C(=O)O | < 5
18 | Cc1c(OCCCN2CCC(F)CC2)cccc1-c1cccc2c1CC[C@@H]2Oc1cc(OCc2cc(C#N)cc(C#N)c2)c(CN[C@H]2CCC[C@@H]2O)cc1Cl | < 5
19 | N#Cc1cncc(COc2cc(O[C@H]3CCc4c(-c5cccc(OCCCN6CC7(CC(F)C7)C6)c5Cl)cccc43)c(Cl)cc2CNC[C@H]2CCC(=O)N2)c1 | < 5
20 | CC1(F)CCN(CCCOc2cccc(-c3cccc4c3CC[C@@H]4Oc3cc(OCc4cncc(C#N)c4)c(CN[C@H]4CCC(=O)NC4)cc3Cl)c2Cl)CC1 | 5 to 500
21 | CCOc1cc(O[C@H]2CCc3c(-c4cccc(OCCCN5CCC5(C)C)c4C)cccc32)c(Cl)cc1CN1CC[C@H](C(=O)O)C1 | 5 to 500
22 | Cc1c(OCCCN2CCC(F)CC2)cccc1-c1cccc2c1CC[C@@H]2Oc1cc(OCc2cc(C#N)cc(C#N)c2)c(CN[C@H]2CCC[C@H]2O)cc1Cl | < 5
23 | Cc1c(OCCCN2CCC(O)CC2)cccc1-c1cccc2c1CC[C@@H]2Oc1cc(OCc2cncc(C#N)c2)c(CN[C@@](C)(CO)C(=O)O)cc1Cl | < 5
24 | C[C@@H](O)[C@H](NCc1cc(Cl)c(O[C@H]2CCc3c(-c4cccc(OCCCN5CC(O)C5)c4Cl)cccc32)cc1OCc1cncc(C#N)c1)C(=O)O | < 5
